pIC50: −log10 of the molar value.
Legend:
HepG2 cells = assay: HepG2 cytotoxicity assay; type: cell-based, human; settings: D-amino acid at P3; comparator not given
[1] = system: ABC16-Monster S. cerevisiae; assay: microbe, parasite or virus in culture; type: cell-based; settings: Saccharomyces cerevisiae
Dd2 parasites = assay: Artemisinin IC50 with proteasome inhibitor co-treatment, 72 h SYBR green assay; type: cell-based; settings: Plasmodium falciparum
Procedure: Compound susceptibility was measured using the malaria SYBR green I-based fluorescence assay.[39] Asynchronous P. falciparum parasites (Dd2 strain) were cultured in standard conditions before being plated for the assays. Each compound was tested over 72 h in technical duplicates on a 12-point concentration curve prepared by 3-fold dilution from 6.7 μM to 0.11 nM. At least three independent experiments were carried out for IC50 determination. Artemisinin and chloroquine were used as controls. IC50 values were obtained using normalized fluorescence intensity from SYBR green I and analyzed via nonlinear variable slope four-parameter regression curve-fitting model in Prism 6 (GraphPad Software Inc.).

Question: How did the fold reduced toxicity (HepG2 cells) turn out when CCCCCC(=O)N[C@H](Cc1c[nH]c2ccccc12)C(=O)N[C@@H](CCCC)C(=O)N[C@@H](CC(C)C)C(=O)[C@@]1(C)CO1 [analog 19] was run?
Answer: Its fold reduced toxicity is “up to 100 fold”.

Question: How did the pIC50 ([1]; GM (parental ABC16-Monster strain), n=4) turn out when CCCCCC(=O)N[C@H](C(=O)N[C@@H](CCS(C)(=O)=O)C(=O)N[C@@H](CC(C)C)C(=O)[C@@]1(C)CO1)C(C)C [Carmaphycin B, carmaphycin B] was run?
Answer: Its pIC50 is 4.61.

Question: And the pIC50 ([1]; resistant Lineage 1)?
Answer: Its pIC50 is under 3.82.

Question: What about the pIC50 ([1]; resistant Lineage 2, n=4) of the same compound?
Answer: Its pIC50 is 4.28.

Question: And the pIC50 ([1]; resistant Lineage 3)?
Answer: Its pIC50 is under 4.00.

Question: What does the source list for C[C@@H]1CC[C@H]2[C@@H](C)C(=O)O[C@@H]3O[C@@]4(C)CC[C@@H]1[C@]32OO4 [artemisinin]?
Answer: pIC50 (Dd2 parasites; DD2, Art + 0.5 nM Analog 18, n = 2): 7.96; pIC50 (Dd2 parasites; DD2, Art + 0.5 nM CarB, n = 2): 7.87; pIC50 (Dd2 parasites; DD2, Art + 1.0 nM Analog 18, n = 2): 8.12; pIC50 (Dd2 parasites; DD2, Art + 1.0 nM CarB, n = 2): 8.15; pIC50 (Dd2 parasites; DD2, Art only, Figure 3B, mean ± SEM, n = 2): 7.63; pIC50 (Dd2 parasites; DD2, Art only, Figure 3C, mean ± SEM, n = 2): 7.72; pIC50 (Dd2 parasites; DD2, artemisinin alone, wild-type artemisinin-sensitive Dd2 parasites, span of both experiments): 7.63 to 7.72
